Columns and labels:
[1] = molecular target: T1, Human JAK1 (Homo sapiens (Human), UniProt P23458); experiment: In vitro kinase inhibition test, JAK1 (33P-ATP filter scintillation); assay type: biochemical; conditions: compound at 1 uM; read-out: JAK1 kinase-phosphorylation inhibitory level (% inhibition)
[2] = molecular target: T2, Human JAK2 (Homo sapiens (Human), UniProt O60674); experiment: In vitro kinase inhibition test, JAK2 (33P-ATP filter scintillation); assay type: biochemical; conditions: compound at 1 uM; read-out: JAK2 kinase-phosphorylation inhibitory level (% inhibition)
[3] = molecular target: T3, Human JAK3 (Homo sapiens (Human), UniProt P52333); experiment: In vitro kinase inhibition test, JAK3 (33P-ATP filter scintillation); assay type: biochemical; conditions: compound at 1 uM; read-out: JAK3 kinase-phosphorylation inhibitory level (% inhibition)
[4] = molecular target: T4, Human TYK2 (Homo sapiens (Human), UniProt P29597); experiment: In vitro kinase inhibition test, TYK2 (33P-ATP filter scintillation); assay type: biochemical; conditions: compound at 1 uM; read-out: TYK2 kinase-phosphorylation inhibitory level (% inhibition)
[5] = test system: DBA/1J mice; experiment: Collagen-induced arthritis (CIA) model, hind paw edema volume; assay type: in vivo, mouse; conditions: 50 mg/kg oral once a day
Procedure: 2. Collagen-induced Arthritis (CIA) Model
DBA/1J mice (6 weeks old, male) were purchased from Japan SLC, Inc., and maintained under controlled lighting in a 12-hour light/dark cycle (07:00-19:00). The temperature was maintained at about 22° C., and the mice were allowed to freely have feed and drinking water.
Type II collagen (dissolved in 0.05 M acetic acid (2 mg/mL)) was kept at 4° C. prior to induction. On the first day of induction, prior to a first immunization, a complete Freund's adjuvant and type II collagen in an equal ratio were homogenized in a cooled tube using a homogenizer to obtain an emulsion of the type II collagen and the Freund's adjuvant. 0.1 mL of the emulsion was injected into mouse tails for the first immunization. […]
Therapeutic efficacy of the compounds according to embodiments was determined using a collagen-induced mouse animal model. […]
The degree of arthritic disease was determined based on the degree of paw edema obtained by measuring a volume of mouse hind paws of the experimental animals. A volume change in the hind paws was measured using a volume measuring flowmeter (Plethysmometer, Havard apparatus, USA, Cat no. 760220), wherein the volume was measured by putting the mouse hind legs into a measurement cell, from knee to paw. The volumes of both paws were measured, and a larger volume value between the two was used as a representative value. […]

[6] = molecular target: T1, Human JAK1; experiment: In vitro kinase inhibition test, JAK1 (33P-ATP filter scintillation); assay type: biochemical
[7] = molecular target: T2, Human JAK2; experiment: In vitro kinase inhibition test, JAK2 (33P-ATP filter scintillation); assay type: biochemical
[8] = molecular target: T3, Human JAK3; experiment: In vitro kinase inhibition test, JAK3 (33P-ATP filter scintillation); assay type: biochemical
[9] = molecular target: T4, Human TYK2; experiment: In vitro kinase inhibition test, TYK2 (33P-ATP filter scintillation); assay type: biochemical

T1 sequence (P23458 whole entry): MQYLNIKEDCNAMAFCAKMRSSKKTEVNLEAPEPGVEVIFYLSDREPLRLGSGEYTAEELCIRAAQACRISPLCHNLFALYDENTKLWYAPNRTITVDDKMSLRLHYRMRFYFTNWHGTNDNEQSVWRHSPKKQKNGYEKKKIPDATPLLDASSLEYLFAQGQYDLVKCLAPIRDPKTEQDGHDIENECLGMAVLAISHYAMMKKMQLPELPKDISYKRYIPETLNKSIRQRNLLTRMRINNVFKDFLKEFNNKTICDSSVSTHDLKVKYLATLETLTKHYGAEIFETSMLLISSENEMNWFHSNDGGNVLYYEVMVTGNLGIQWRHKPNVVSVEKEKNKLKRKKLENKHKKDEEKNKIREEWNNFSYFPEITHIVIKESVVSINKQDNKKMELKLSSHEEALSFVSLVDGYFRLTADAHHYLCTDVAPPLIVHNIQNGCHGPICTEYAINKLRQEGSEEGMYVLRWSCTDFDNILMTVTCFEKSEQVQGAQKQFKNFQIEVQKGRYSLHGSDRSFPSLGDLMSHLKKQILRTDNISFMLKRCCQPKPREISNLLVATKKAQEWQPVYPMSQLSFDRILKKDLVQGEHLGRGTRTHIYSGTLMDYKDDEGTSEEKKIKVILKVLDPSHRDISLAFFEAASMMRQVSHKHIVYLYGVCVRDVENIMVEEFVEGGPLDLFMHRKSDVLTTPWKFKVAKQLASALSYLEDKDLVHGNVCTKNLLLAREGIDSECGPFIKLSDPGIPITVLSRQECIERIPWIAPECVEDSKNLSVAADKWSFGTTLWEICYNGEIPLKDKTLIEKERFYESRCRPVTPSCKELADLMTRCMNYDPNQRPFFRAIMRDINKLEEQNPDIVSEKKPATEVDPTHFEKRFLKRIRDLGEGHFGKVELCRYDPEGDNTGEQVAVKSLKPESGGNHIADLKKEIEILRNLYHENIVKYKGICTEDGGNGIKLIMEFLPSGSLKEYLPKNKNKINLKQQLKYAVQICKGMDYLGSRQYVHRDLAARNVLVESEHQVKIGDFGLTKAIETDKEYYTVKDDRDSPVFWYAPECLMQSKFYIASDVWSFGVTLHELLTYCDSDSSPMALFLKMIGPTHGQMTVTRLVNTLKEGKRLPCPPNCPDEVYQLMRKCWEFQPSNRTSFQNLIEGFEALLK
T3 sequence (P52333 whole entry): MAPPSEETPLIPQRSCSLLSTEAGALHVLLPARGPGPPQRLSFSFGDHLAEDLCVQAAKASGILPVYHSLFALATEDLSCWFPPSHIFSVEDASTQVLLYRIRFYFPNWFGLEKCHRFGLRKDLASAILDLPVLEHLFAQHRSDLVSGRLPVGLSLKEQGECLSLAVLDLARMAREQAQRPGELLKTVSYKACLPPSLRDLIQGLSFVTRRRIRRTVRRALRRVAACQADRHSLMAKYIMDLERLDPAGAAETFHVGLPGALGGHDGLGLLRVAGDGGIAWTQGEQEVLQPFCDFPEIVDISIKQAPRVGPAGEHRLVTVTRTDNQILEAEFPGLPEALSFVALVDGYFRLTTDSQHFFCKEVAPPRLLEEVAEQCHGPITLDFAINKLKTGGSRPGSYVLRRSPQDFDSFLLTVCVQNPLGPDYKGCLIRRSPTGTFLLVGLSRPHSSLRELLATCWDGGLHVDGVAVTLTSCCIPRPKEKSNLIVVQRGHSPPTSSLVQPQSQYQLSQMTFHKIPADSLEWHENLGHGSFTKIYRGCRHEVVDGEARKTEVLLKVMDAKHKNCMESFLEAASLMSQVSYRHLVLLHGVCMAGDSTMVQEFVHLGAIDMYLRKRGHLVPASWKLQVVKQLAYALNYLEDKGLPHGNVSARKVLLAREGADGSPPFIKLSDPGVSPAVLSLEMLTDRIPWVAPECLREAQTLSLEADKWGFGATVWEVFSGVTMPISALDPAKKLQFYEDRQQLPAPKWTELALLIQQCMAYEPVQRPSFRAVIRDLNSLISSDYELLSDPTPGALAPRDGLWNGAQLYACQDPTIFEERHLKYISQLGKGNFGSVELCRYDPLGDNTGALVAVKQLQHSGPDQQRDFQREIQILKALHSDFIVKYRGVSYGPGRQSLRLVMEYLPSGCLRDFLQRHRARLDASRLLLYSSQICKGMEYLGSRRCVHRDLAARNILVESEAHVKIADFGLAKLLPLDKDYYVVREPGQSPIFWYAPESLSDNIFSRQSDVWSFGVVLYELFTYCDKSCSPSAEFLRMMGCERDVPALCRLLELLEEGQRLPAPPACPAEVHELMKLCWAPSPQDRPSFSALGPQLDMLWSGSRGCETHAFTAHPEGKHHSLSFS
T4 sequence (P29597 whole entry): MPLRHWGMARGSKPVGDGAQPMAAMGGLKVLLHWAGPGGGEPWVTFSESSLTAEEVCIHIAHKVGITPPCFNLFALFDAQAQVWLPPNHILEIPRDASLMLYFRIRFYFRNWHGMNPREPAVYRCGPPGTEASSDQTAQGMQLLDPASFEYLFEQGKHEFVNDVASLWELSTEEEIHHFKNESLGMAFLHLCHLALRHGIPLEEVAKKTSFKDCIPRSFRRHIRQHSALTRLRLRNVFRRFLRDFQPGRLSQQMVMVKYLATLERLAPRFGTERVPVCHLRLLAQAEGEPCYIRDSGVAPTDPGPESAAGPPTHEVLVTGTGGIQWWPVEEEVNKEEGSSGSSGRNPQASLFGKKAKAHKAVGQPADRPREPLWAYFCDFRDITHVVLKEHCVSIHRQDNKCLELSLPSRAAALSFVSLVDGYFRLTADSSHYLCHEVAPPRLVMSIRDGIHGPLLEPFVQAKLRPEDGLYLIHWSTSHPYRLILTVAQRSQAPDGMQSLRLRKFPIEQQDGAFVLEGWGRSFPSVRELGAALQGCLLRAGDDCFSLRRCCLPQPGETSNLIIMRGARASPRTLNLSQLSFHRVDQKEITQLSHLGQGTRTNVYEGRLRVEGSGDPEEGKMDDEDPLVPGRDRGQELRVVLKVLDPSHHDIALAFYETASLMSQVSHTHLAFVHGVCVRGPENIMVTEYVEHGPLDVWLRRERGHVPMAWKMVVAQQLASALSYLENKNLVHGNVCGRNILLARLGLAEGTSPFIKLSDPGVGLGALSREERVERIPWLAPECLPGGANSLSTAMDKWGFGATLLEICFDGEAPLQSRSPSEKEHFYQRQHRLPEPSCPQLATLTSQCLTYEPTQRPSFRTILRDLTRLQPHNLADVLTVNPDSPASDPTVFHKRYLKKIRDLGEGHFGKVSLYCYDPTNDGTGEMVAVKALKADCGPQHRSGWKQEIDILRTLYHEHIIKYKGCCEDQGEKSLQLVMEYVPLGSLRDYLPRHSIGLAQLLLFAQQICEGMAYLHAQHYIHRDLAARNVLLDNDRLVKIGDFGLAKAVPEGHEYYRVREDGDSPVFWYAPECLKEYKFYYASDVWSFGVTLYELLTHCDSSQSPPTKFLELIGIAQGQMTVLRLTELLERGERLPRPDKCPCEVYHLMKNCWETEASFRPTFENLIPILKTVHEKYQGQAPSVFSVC
T2 sequence (O60674 whole entry): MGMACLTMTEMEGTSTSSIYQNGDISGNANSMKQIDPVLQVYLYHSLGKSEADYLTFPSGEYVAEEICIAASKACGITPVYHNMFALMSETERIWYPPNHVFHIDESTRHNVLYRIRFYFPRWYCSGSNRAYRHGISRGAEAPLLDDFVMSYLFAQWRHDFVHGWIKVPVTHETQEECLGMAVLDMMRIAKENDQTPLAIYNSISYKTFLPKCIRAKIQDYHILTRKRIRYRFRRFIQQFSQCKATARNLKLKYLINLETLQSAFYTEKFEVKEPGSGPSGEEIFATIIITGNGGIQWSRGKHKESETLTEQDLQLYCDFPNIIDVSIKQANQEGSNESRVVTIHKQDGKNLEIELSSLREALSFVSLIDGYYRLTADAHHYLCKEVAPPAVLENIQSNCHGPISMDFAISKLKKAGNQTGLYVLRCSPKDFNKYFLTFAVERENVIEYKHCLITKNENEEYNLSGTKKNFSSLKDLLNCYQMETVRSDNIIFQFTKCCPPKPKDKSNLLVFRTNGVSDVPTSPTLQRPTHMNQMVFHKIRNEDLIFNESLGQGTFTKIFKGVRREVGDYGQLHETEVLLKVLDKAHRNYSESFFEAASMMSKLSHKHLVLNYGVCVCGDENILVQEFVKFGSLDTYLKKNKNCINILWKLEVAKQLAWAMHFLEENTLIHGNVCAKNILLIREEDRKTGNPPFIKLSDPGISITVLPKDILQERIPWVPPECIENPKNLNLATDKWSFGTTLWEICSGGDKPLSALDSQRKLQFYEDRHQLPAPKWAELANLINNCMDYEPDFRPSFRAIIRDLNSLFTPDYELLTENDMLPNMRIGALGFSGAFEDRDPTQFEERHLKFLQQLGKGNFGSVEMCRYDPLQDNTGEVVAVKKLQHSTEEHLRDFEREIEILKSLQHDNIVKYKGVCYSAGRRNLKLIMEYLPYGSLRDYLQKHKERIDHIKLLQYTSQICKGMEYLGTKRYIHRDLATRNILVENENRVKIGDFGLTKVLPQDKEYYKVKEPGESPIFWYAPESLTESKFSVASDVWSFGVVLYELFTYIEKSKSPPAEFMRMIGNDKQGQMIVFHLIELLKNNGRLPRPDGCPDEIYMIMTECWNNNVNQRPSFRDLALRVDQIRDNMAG

With CN(c1ncnc2[nH]ccc12)[C@H]1CN(C(=O)CC#N)CC12CC2 [Example 5, (R)-3-(7-(methyl(7H-pyrrolo[2,3-d]pyrimidin-4-yl)amino)-5-azaspiro[2.4]heptan-5-yl)-3-oxopropanenitrile] the inhibition at 1 µM [1] was 95%, the inhibition at 1 µM [2] was 79% and the inhibition at 1 µM [3] was 50%. The inhibition at 1 µM [4] was 82%, the “inhibition of hind paw edema as compared to the control group” value ([5]; 49th day after the first immunization (end of measurement)) was “about 64%” and the “inhibition of hind paw edema as compared to the control group” value ([5]; from the 31st day after the first immunization onwards) was no less than 60%. The IC50 [6] was 8.5 nM, the “JAK1 inhibitory activity relative to the racemic mixture (Example 55)” value ([6]; from IC50 values 8.5 nM vs 29.3 nM) was “about 3.5 fold” and the IC50 [7] was 412 nM. The IC50 [8] was 1090 nM and the IC50 [9] was 252 nM.

— patent publication US10081635B2, “Substituted N-(pyrrolidine-3-yl)-7H-pyrrolo[2,3-D]pyrimidine-4-amine as janus kinase inhibitor” (YANG JI CHEMICAL CO., LTD., priority 2014, dated 2018)
